Measured values reported in patent US20190389963A1, “COMBINATION THERAPY BY USING ANTI-GLOBO H OR ANTI-SSEA-4 ANTIBODY WITH ANTI-NEGATIVE IMMUNE CHECK POINTS ANTIBODY” (OBI Pharma, Inc., priority 2018, published 2019).

How the values were obtained:
Jurkat/NFAT-Re Luc cells = assay: Jurkat/NFAT-Re Luc T cell activation by Anti-CD3/CD28, luciferase reporter, after pre-incubation with Globo series ceramides; assay type: cell-based, human; details: various concentrations of ceramide, pre-incubated 18-24 hours; 6 hours activation; FIG. 2
Description: Jurkat/NFAT-Re Luc cells (Promega, Inc., Cat# G7102) were pre-incubated with or without various concentrations of chemically synthesized Globo H ceramide (GHCer) or SSEA-4 ceramide (SSEA4Cer) for 18-24 hours in 48-well culture plate. Cells were collected and transferred to white, flat-bottom 96-well assay plates (Greiner Bio-One GmbH, Cat#655073) coated overnight with Anti-human CD3 (100 ng/well) (BioLegend, Inc. Cat#317326), and Anti-human CD28 (300 ng/well) (BioLegend, Inc. Cat#302914) in 37° C. incubator for a 6 hours activation. Assay plates were removed from the incubator and equilibrated to room temperature (22-25° C.) for 15 minutes. 75 μL of Bio-Glo™ Luciferase Assay Reagent (Promega, Inc. Cat#G7940) was added and incubated the plates at RT for 15 minutes. Luminescence was measured using a microplate reader SpectraMax L (Molecular Devices, LLC.). The Photomultiplier Tube (PMT) sensitivity was set as autorange and calibrated at 570 nm. Fold of induction was calculated by RLUactivated/RLUunstimulated.

[1] = test system: PD-1 Effector Cells with PD-L1+ target cells (TCR signaling); assay: PD-1/PD-L1 Blockade Bioassay with GHCer or SSEA4Cer treated PD-1 Effector Cells; assay type: cell-based; details: various concentration of ceramide on PD-1 Effector Cells 24 hours, 6 hours with PD-L1+ cells; FIG. 6 as printed
Description: Various concentration of GHCer or SSEA4Cer was incubated with PD-1 Effector Cells (PD-1/PD-L1 Blockade Bioassay Kit, Promega, Cat# J3011), then incubate for 24 hours at 37° C. PD-L+ target cells (PD-1/PD-L1 Blockade Bioassay Kit, Promega, Cat# J3011) were seeded in 96 well plate and incubate for 24 hours at 37° C. with 5% CO2. The growth medium from the plate coated PD- L1+ cells was replaced by the GHCer or SSEA4Cer/Effector cells R×n and incubated for 6 hours. Plate was removed to ambient temperature for 10 mins. Bio-Glo™ Reagent was added and incubate for 15 mins then read by luminometer.

[2] = test system: PD-1/PD-L1 engagement inhibited TCR signaling (PD-1 Effector Cells, PD-L1+ target cells); assay: PD-1/PD-L1 Blockade Bioassay, GHCer treated effector cells with Keytruda or Tecentriq; assay type: cell-based; details: 6 hours, FIG. 7; for Release of PD-1/PD-L1 engagement inhibited TCR signaling by checkpoint antibody: 2 μM antibody, effector cells with 40 μM GHCer
Description: (§1) 40 μM GHCer was incubated with PD-1 Effector Cells (PD-1/PD-L1 Blockade Bioassay Kit, Promega, Cat# J3011), then incubate for 24 hours at 37° C. with 5% CO2. PD-L1+ target cells were seeded in 96 well plate and incubate for 24 hours at 37° C. with 5% CO2. The growth medium from the plates coated PD-L+ cells was replaced by the GHCer/Effector cells R×n with 2 μM Keytruda, the Anti-PD-1 mAb, or 2 lμM Tecentriq, the Anti-PD-L1 mAb, and incubate for 6 hours at 37° C. with 5% CO2. Plate was removed to ambient temperature for 10 mins. Bio-Glo™ Reagent was added and incubate for 15 mins then read by luminometer.

[3] = test system: PD-1/PD-L1 engagement inhibited TCR signaling (PD-1 Effector Cells, PD-L1+ target cells); assay: PD-1/PD-L1 Blockade Bioassay, SSEA4Cer treated effector cells with Keytruda or Tecentriq; assay type: cell-based; details: 6 hours, FIG. 8; for Release of PD-1/PD-L1 engagement inhibited TCR signaling by checkpoint antibody: 2 μM antibody, effector cells with 40 μM SSEA4Cer
Description: as §1, with “SSEA4Cer” for “GHCer”, “SSEA4Cer/Effector” for “GHCer/Effector”, “μM” for “lμM”

[4] = test system: GHCer and PD-1/PD-L1 engagement inhibited TCR signaling (PD-1 Effector Cells, PD-L1+ target cells); assay: PD-1/PD-L1 Blockade Bioassay, GHCer pre-incubated with OBI-888, combined with Keytruda or Tecentriq; assay type: cell-based; details: 10 μM OBI-888 with GHCer 4 hours; 2 μM Keytruda or 2 μM Tecentriq, 6 hours; FIG. 10 as printed
Description: (§2) GHCer were incubated with 10 μM OBI-888 in assay medium containing 99% RPMI 1640/1% FBS (PD-1/PD-L1 Blockade Bioassay Kit, Promega, Cat# J3011) at 37° C. for 4 hours. Samples were centrifuged at 8000×g for 5 minutes twice and supernatant were harvested and incubated with PD-1 Effector Cells for 24 hours. PD-L1+ target cells were seeded in 96 well plate and incubate for 24 hours at 37° C. with 5% CO2. The growth medium from the plates coated PD- L1 cells was replaced by the GHCer/Effector cells R×n with 2 μM Keytruda or 2 μM Tecentriq and incubate for 6 hours at 37° C. with 5% CO2. Plate was removed to ambient temperature for 10 mins. Bio-Glo™ Reagent was added and incubate for 15 mins then read by luminometer.

[5] = test system: SSEA4Cer and PD-1/PD-L1 engagement inhibited TCR signaling (PD-1 Effector Cells, PD-L1+ target cells); assay: PD-1/PD-L1 Blockade Bioassay, SSEA4Cer pre-incubated with OBI-898, combined with Keytruda or Tecentriq; assay type: cell-based; details: 5 μM OBI-898 with SSEA4Cer 4 hours; 2 μM Keytruda or 2 μM Tecentriq, 6 hours; FIG. 11 as printed
Description: as §2, with “SSEA4Cer were” for “GHCer were”, “with 5” for “with 10”, “μM OBI-898” for “μM OBI-888”, “medium” for “medium containing 99% RPMI 1640/1% FBS (PD-1/PD-L1 Blockade Bioassay Kit, Promega, Cat# J3011)”, “hours. PD-L+” for “hours. PD-L1+”, “the SSEA4Cer/Effector” for “the GHCer/Effector”

Row | Substance | Jurkat T cell activation to Anti-CD3/28 stimulation (fold of induction, RLUactivated/RLUunstimulated) (Jurkat/NFAT-Re Luc cells) | Suppression of TCR activation signaling pathway together with PD-1/PD-L1 engagement [1] | Effect of GHCer incorporation on Keytruda or Tecentriq released TCR signaling ([2]; 40 μM GHCer on effector cells 24 hours, 2 μM Keytruda or 2 lμM Tecentriq) | Release of PD-1/PD-L1 engagement inhibited TCR signaling by checkpoint antibody [2] | Release of PD-1/PD-L1 engagement inhibited TCR signaling by checkpoint antibody [3] | Rescue of GHCer and PD-1/PD-L1 engagement inhibited TCR signaling by combination [4] | Rescue of SSEA4Cer and PD-1/PD-L1 engagement inhibited TCR signaling by combination [5] | Effect of SSEA4Cer incorporation on Keytruda or Tecentriq released TCR signaling ([3]; 40 μM SSEA4Cer on effector cells 24 hours, 2 μM Keytruda or 2 μM Tecentriq)
1 | Globo H ceramide [GHCer] | suppress the Jurkat T cell activation to Anti-CD3/28 stimulation in a dose dependent manner | acts synergistically with PD-1/PD-L1 engagement to suppress the TCR activation signaling pathway | reduced Keytruda or Tecentriq released PD-1/PD-L1 engagement inhibited TCR signaling | – | – | – | – | –
2 | Keytruda: the Anti-PD-1 mAb; MSD Ireland, Lot 7302614A13 | – | – | – | released PD-1/PD-L1 engagement inhibited TCR signaling | released PD-1/PD-L1 engagement inhibited TCR signaling | acts synergistically with Keytruda | acts synergistically with Keytruda | –
3 | SSEA-4 ceramide [SSEA4Cer] | suppress the Jurkat T cell activation to Anti-CD3/28 stimulation in a dose dependent manner | acts synergistically with PD-1/PD-L1 engagement to suppress the TCR activation signaling pathway | – | – | – | – | – | reduced Keytruda or Tecentriq released PD-1/PD-L1 engagement inhibited TCR signaling
4 | Tecentriq: the Anti-PD-L1 mAb; Roche, Lot H0125B11 | – | – | – | released PD-1/PD-L1 engagement inhibited TCR signaling | released PD-1/PD-L1 engagement inhibited TCR signaling | synergistically with Keytruda or Tecentriq | synergistically with Keytruda or Tecentriq | –
